The values below come from article PMC4505686 (ACS Chemical Neuroscience, 2015).

One may read the EC50 as the midpoint of the concentration-response curve. As usually defined, the stoichiometry N is a count of units in the complex or per binding partner.

Experiment [1] deals with T1, 5-HT3 receptor (5-HT3A) (Homo sapiens, UniProt P46098).
T1 construct: gene HTR3A; full-length cDNA in pcDNA3.1, transiently expressed in HEK293 cells; homopentamer (also in Xenopus oocytes)
T1 sequence (P46098 24-478): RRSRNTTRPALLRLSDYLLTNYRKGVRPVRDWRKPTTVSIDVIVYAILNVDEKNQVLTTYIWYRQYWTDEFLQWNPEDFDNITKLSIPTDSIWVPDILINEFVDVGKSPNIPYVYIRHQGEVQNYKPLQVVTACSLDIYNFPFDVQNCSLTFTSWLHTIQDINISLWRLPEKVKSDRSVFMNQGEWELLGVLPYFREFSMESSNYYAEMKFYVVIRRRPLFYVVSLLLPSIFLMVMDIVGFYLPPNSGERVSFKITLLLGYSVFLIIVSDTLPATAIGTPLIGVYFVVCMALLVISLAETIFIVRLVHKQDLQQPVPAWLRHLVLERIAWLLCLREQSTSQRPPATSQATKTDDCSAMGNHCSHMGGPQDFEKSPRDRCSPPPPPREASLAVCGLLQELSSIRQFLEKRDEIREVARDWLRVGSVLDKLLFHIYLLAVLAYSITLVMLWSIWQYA
The experiment can be described thus: membrane potential dye fluorescence, FlexStation, transfected HEK293 cells. Format: cell-based. Conditions: read-out: varenicline EC50.

In experiment [2] the target is T2, 5-HT3 receptor (5-HT3A) (Homo sapiens, UniProt P46098, Y148A).
T2 construct: gene HTR3A; full-length cDNA in pcDNA3.1, transiently expressed in HEK293 cells; homopentamer (also in Xenopus oocytes)
T2 sequence (P46098 24-478 Y148A): T1 sequence (P46098 24-478) with Y125A
The description is as above. The experiment is classed as cell-based. Conditions: read-out: varenicline EC50.

In experiment [3] the target is T3, 5-HT3 receptor (5-HT3A) (Homo sapiens, UniProt P46098, Y89A).
T3 construct: gene HTR3A; full-length cDNA in pcDNA3.1, transiently expressed in HEK293 cells; homopentamer (also in Xenopus oocytes)
T3 sequence (P46098 24-478 Y89A): T1 sequence (P46098 24-478) with Y66A
The description is as above. Format: cell-based. Conditions: read-out: varenicline EC50.

Experiment [4] has as its target T4, 5-HT3 receptor (5-HT3A) (Homo sapiens, UniProt P46098, W178Y).
T4 construct: gene HTR3A; full-length cDNA in pcDNA3.1, transiently expressed in HEK293 cells; homopentamer (also in Xenopus oocytes)
T4 sequence (P46098 24-478 W178Y): T1 sequence (P46098 24-478) with W155Y
Described as above. The experiment is classed as cell-based. Conditions: read-out: varenicline EC50.

Experiment [5] addresses T5, 5-HT3 receptor (5-HT3A) (Homo sapiens, UniProt P46098, W85Y).
T5 construct: gene HTR3A; full-length cDNA in pcDNA3.1, transiently expressed in HEK293 cells; homopentamer (also in Xenopus oocytes)
T5 sequence (P46098 24-478 W85Y): T1 sequence (P46098 24-478) with W62Y
The description is as above. The experiment is classed as cell-based. Particulars: read-out: varenicline EC50.

In experiment [6] the target is T6, 5-HT3 receptor (5-HT3A) (Homo sapiens, UniProt P46098, N123Q).
T6 construct: gene HTR3A; full-length cDNA in pcDNA3.1, transiently expressed in HEK293 cells; homopentamer (also in Xenopus oocytes)
T6 sequence (P46098 24-478 N123Q): T1 sequence (P46098 24-478) with N100Q
The experiment is described as above. The experiment is classed as cell-based. Conditions: read-out: varenicline EC50.

Experiment [7] has as its target 5-HTBP (Aplysia californica, UniProt Q8WSF8, Q74R/S111E/V159L/K160T). The experiment is described as follows: X-ray crystal structure, […] Å. Conditions: co-crystallised, 5 mM varenicline (tartrate) with 6 mg/mL protein; orthosteric site, all five sites. The experiment is classed as binding.
For experiment [8], the target named is 5-HT binding protein (5-HTBP), an acetylcholine binding protein (AChBP) from Aplysia californica engineered to bind 5-HT (Aplysia californica). The experiment can be described thus: crystal structure; 5-HTBP at 6 mg/mL mixed with 5 mM varenicline; space group P4(1)2(1)2; 2.3 Å; one pentamer per asymmetric unit.

Substitutions are numbered along the chain they refer to.

Chain of 5-HTBP (Q8WSF8 entry or part of it Q74R/S111E/V159L/K160T): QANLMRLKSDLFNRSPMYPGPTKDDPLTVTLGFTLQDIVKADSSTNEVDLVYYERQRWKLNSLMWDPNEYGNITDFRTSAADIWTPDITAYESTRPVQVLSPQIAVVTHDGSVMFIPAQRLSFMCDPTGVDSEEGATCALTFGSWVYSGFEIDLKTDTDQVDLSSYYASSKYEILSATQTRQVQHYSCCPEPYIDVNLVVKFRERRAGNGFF

`c1cnc2cc3c(cc2n1)C1CNCC3C1` [varenicline]: the 50% effective concentration (EC50) was found to be 0.42 µM in experiment [1]; 9.4 µM in experiment [2]; 0.13 µM in experiment [3]; 38 µM in experiment [4]; 2.9 µM in experiment [5]; 26 µM in experiment [6]. Moreover, the “X-ray crystal structure, 2.3 Å” value in experiment [7] was “three-dimensional structure of 5-HTBP in complex with varenicline”.
Regarding “5-HT binding protein (5-HTBP), an acetylcholine binding protein (AChBP) from Aplysia californica engineered to bind 5-HT (natural protein)”, the stoichiometry N in experiment [8] stood at 5.
